In US12291536B2, “Crystal form of Wee1 inhibitor compound and use thereof” (Wuxi Biocity Biopharmaceutics Co., Ltd., priority 2019, dated 2025):
Values belong to the molecule of their own block, whether it stands above or below them.

Assays:
[1] = Pharmacokinetic evaluation after single intravenous and single oral administration; format: in vivo, female Balb/c Nude mice; details: female, Balb/c Nude; for AUC(0-t): read-out: Area under the drug-time curve AUC0-last; for half-life: read-out: Half-life T1/2 (converted)
Experimental: Twelve mice (provided by Lingchang) were randomly divided into two groups, 6 females in each group, and samples were collected by cross-blood sampling.
In the intravenous group, plasma samples were collected at 9 time points: 5 min, 15 min, 30 min, 1 h, 2 h, 4 h, 6 h, 8 h, and 24 h after the administration. In the oral group, plasma samples were collected at 8 time points: 15 min, 30 min, 1 h, 2 h, 4 h, 6 h, 8 h and 24 h after the administration.

[2] = test system: human colon cancer LoVo cell subcutaneous xenograft tumor; experiment: In vivo pharmacodynamic study, human colon cancer LoVo cell subcutaneous xenograft tumor model; parameters: species or system BALB/c nude mice; details: gavage 40 mg/kg twice a day, 16 days
Experimental: Experimental method: The selected experimental animals (provided by Shanghai SIPPR-BK Experimental Animal Co., Ltd.) were BALB/c nude mice, 6-8 weeks, weighing 18-22 g.
Human colon cancer LoVo cells were cultured in monolayer in vitro, and culture conditions were Ham's F-12 medium with 10% fetal bovine serum, 100 U/mL penicillin, 100 μg/mL streptomycin and 2 mM glutamine, 37° C., 5% CO2. Trypsin-EDTA was used for routine digestion and passage, twice a week. When the cell saturation is 80%-90%, the cells were collected, counted, and inoculated. 0.1 mL (10×10^6 cells) of LoVo cells were subcutaneously inoculated on the right back of each nude mouse, and group administration was initiated when the average tumor volume reached 213 mm^3. Dosage for gavage administration was 40 mg/kg, twice a day. The experimental index was to investigate whether the tumor growth was inhibited, alleviated or cured. The diameters of the tumors were measured with a vernier caliper twice a week. The calculation formula for the tumor volume was V=0.5a×b^2, where a and b represent the long diameter and short diameter of the tumor, respectively.
The anti-tumor efficacy of the compound was evaluated by TGI (%) or the relative tumor growth rate T/C (%). TGI (%) reflects the tumor growth inhibition rate. […]

[3] = test system: human pancreatic cancer BxPC-3 cell xenograft tumor; experiment: In vivo pharmacodynamic study, human pancreatic cancer BxPC-3 subcutaneously transplanted tumor model; parameters: species or system BALB/c nude mice; details: BxPC-3 xenograft, gavage 25 mg/Kg once a day, 27 days
Experimental: Experimental procedure: The selected experimental animals were BALB/c nude mice, 6-8 weeks, weighing 18-22 g.
The 10th generation of BxPC-3 cells were cultured in monolayer in vitro, and the culture conditions were RPMI 1640 medium (Manufacturer: Gibco, Catalog: 22400-089) with 10% fetal bovine serum, 100 U/mL penicillin and 100 μg/mL Streptomycin, 37° C., 5% CO2, 4 passages. The passage method was twice a week with trypsin-EDTA for routine digestion and passage. When the cell saturation reached 80%-90%, the cells were digested with trypsin-EDTA, counted, and resuspended in PBS at a density of 5×10^7 cells/mL. Each animal was inoculated with 0.1 mL (5×10^6 cells) of BxPC-3 cells on the right back. When the average tumor volume reached 153 mm^3, they were randomly grouped according to the tumor volume and administration was started. Gavage dosage: 25 mg/Kg, once a day.
(§1) The experimental index was to investigate whether the tumor growth was inhibited, alleviated or cured. The diameters of the tumors were measured with a vernier caliper twice a week. The anti-tumor efficacy of the compound was evaluated by TGI (%) or the relative tumor growth rate T/C (%). TGI (%) reflects the tumor growth inhibition rate. […]

[4] = test system: mouse colon cancer CT26 cell allograft tumor; experiment: In vivo anti-tumor efficacy, CT26 mouse colon cancer cell transplanted tumor model; parameters: species or system BALB/c nude mice; details: gavage 30 mg/kg twice a day, 18 days
Experimental: Experimental procedure: The selected experimental animals were BALB/c nude mice, 7 weeks, weighing 16-20 g, female.
Cells: Mouse colon cancer CT26 cells (Cell Bank of Type Culture Collection Committee of Chinese Academy of Sciences) were cultured in monolayer in vitro, and culture condition was RPMI-1640 medium containing 10% fetal bovine serum, in 37° C., 5% CO2 incubator. Trypsin-EDTA was used for routine digestion and passage. When the cells were in the exponential growth phase and the saturation was 80%-90%, the cells were collected, counted, and inoculated. 0.1 mL of DPBS (containing 3×10^5 CT26 cells) was subcutaneously inoculated on the right back of each mouse. When the average tumor volume reached 50-70 mm^3, randomized administration was carried out according to the tumor volume. Gavage dosage: 30 mg/kg, twice a day.
as §1

[5] = Solid stability test of Crystal Form F under high temperature, high humidity, illumination and accelerated conditions; format: physicochemical
Experimental: According to influencing factors and accelerated test conditions, about 5 mg of Crystal Form F of the Compound of Formula (I) was weighed precisely and placed in a dry and clean glass bottle, in duplicate, and spread into a thin layer, as the formal test sample, placed under the influencing factors test conditions (60° C., 92.5% RH (relative humidity)) and accelerated conditions (40° C./75% RH and 60° C./75% RH), with the samples fully exposed. The test system was covered with an aluminum foil paper with small holes. In addition, a small amount of samples were taken and placed in a 40 mL glass sample bottle under the same conditions to determine the crystal state. Sampling and analysis were performed on day 5 days, 10 days, and one month. The samples placed under Illumination (visible light 1200000 Lux, UV 200 W) conditions were fully exposed at room temperature.

Wee1 = target: T1, Wee1 (Homo sapiens, UniProt P30291); experiment: In vitro enzymatic inhibitory activity (Eurofins, [γ-33P]-ATP filter assay); format: biochemical; details: 10 μM ATP, 40 min, room temperature
T1 construct: purchased Eurofins
T1 sequence (P30291 whole entry): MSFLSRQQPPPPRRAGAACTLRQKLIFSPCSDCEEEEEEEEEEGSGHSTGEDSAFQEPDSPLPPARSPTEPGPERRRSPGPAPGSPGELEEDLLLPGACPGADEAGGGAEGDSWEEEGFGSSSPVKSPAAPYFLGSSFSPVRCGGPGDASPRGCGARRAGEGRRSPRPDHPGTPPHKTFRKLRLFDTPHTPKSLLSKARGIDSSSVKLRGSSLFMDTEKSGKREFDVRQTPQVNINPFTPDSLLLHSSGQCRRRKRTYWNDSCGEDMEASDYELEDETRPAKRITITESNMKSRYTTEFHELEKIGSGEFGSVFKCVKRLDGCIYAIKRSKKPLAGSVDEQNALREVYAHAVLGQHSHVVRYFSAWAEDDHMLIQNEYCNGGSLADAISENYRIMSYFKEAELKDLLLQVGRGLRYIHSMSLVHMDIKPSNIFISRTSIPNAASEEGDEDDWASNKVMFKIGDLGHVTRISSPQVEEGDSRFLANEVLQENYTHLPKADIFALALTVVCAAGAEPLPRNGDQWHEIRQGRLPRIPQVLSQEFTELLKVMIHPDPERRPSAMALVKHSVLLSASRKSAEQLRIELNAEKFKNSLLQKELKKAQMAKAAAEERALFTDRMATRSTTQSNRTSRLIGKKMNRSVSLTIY
Experimental: The experimental test was carried out in Eurofins, and the experimental results were provided by the company.
Into the test system were added 20 mM Tris-HCl, pH 8.5, 0.2 mM EDTA, 500 μM polypeptide substrate ([sequence]), 10 mM magnesium acetate and 10 μM [γ-^33P]-ATP (intensity of about 500 cpm/pmol). After addition of Mg^2+ and ATP mixture, the reaction was initiated and incubated at room temperature for 40 min. 3% phosphate buffer was added to stop the reaction.
10 μL of reaction solution was taken and filtered on a continuous filter P30, and washed three times with 75 mM phosphate buffer, once with methanol, each washing for 5 min. After drying, the values were read by scintillation counting method.

P-gp (MDR1) = experiment: In vitro permeability test in MDR1-MDCK II cells; format: in vitro ADME, canine; details: dog
Excerpt: (§2) MDR1-MDCK II cell authorized by the Piet Borst Laboratory of the Netherlands Cancer Institute was used in the study, the cell is a Madin-Darby canine kidney cell transfected with the human multi-drug resistance gene (MDR1), which can stably express efflux transporter P glycoprotein (P-gp) and therefore is suitable for screening P-gp substrate or inhibitor, and for predicting the permeability of compounds with high efflux barriers such as duodenum, blood-brain barrier, […], and kidney unit. MDR1-MDCK II cells of from passage 5-35 were used for permeability study.
(§3) MDR1-MDCK II cells were cultured with α-MEM medium (α-Minimum Essential Media) under culture condition of 37±1° C., 5% CO2 and saturated relative humidity. Then, the cells were seeded in a BD Transwell-96 well plate at a seeding density of 2.3×10^5 cells/cm^2, and then the cells were cultured in a carbon dioxide incubator for 4-7 days for transport experiment. The preparation method of its α-MEM medium was as follows:
(§4) The liquid nutrient base was prepared with powder (α-MEM powder from Gibco, Cat #:11900) dissolved in pure water, and was added with L- (L-glutamine) and NaHCO3. Then 10% FBS (fetal bovine serum), 1% PS (double antibody) and 1% NEAA were added upon use to make a complete medium. […]
(§5) After all samples were vortexed and centrifuged at 3220 g for 10 min, an appropriate volume of supernatant was transferred to the sample analysis plate. After the plate was sealed, the sample should be stored at 2-8° C. if it was not analyzed immediately, using the LC-MS/MS method for analysis.
(§6) After the transport experiment was over, the integrity of the MDR1-MDCK II cells was tested by the Lucifer Yellow Rejection Assay. After 30 min of incubation with the Lucifer Yellow solution, the Lucifer Yellow sample was collected, and the 2e plate reader set at 425/528 nm (Excitation/Emission) was used to detect the relative fluorescence intensity (RFU) of fluorescent yellow in the sample.

P-gp (human MDR1) = experiment: In vitro permeability test in MDR1-MDCK II cells; format: in vitro ADME, canine; details: dog
Excerpt: as §2, §3, §4, §5, §6

[6] = po, Administration by gavage, 10 mg/kg, mouse plasma
[7] = Intravenous administration, 1 mg/kg, mouse plasma
[8] = Illumination (visible light 1200000 Lux, UV 200 W), room temperature

- AUC(0-t) [1, 6]: 1.2 µM·h
- half-life [1, 7]: 15.1 min
Compound: C=CCn1c(=O)c2cnc(Nc3ccc(N4CCN(C)CC4)cc3)nc2n1-c1cccc(C(C)(C)O)n1 [AZD1775, reference compound]
- TGI (%) [2]: 26.73%
- TGI (%) [3]: 24.3%
- TGI (%) [4]: 66.43%

- Content % ([5]; 0 day): 99.38%
- Total impurity % ([5]; 0 day): 0.63%
- Content % ([5]; 40° C.-75% humidity, 1 month): 97.94%
- Total impurity % ([5]; 40° C.-75% humidity, 1 month): 0.62%
- Content % ([5]; 40° C.-75% humidity, 10 day): 98.01%
- Total impurity % ([5]; 40° C.-75% humidity, 10 day): 0.63%
- Content % ([5]; 60° C., 5 days): 99.39%
- Total impurity % ([5]; 60° C., 5 days): 0.74%
- Content % ([5]; 60° C., 10 days): 99.98%
- Total impurity % ([5]; 60° C., 10 days): 0.84%
- Content % ([5]; 60° C.-75% humidity, 1 month): 99.46%
- Total impurity % ([5]; 60° C.-75% humidity, 1 month): 0.75%
- Content % ([5]; 60° C.-75% humidity, 10 day): 100.43%
- Total impurity % ([5]; 60° C.-75% humidity, 10 day): 0.69%
- Content % ([5]; 92.5% humidity, 5 days): 98.72%
- Total impurity % ([5]; 92.5% humidity, 5 days): 0.61%
- Content % ([5]; 92.5% humidity, 10 days): 98.38%
- Total impurity % ([5]; 92.5% humidity, 10 days): 0.64%
- Content % [5, 8]: 98.58%
- Total impurity % [5, 8]: 0.67%
- Content % ([5]; Protection from light): 97.77%
- Total impurity % ([5]; Protection from light): 0.61%
- Crystal form change (physical stability) ([5]; one-month solid influencing factor and accelerated test): did not change
Compound: CN1CCN(c2ccc(Nc3ncc4c(=O)n5n(c4n3)-c3cccc(n3)[C@](C)(O)CC/C=C\C5)cc2)CC1 [Crystal Form F]

- IC50 (Wee1): 29 nM
- Papp A→B at 150 min, 2 μM (P-gp (MDR1); read-out: Penetration rate A to B): 4.55 ×10⁻⁶ cm/s
- Papp B→A at 150 min, 2 μM (P-gp (MDR1); read-out: Penetration rate B to A): 17.4 ×10⁻⁶ cm/s
- efflux ratio at 150 min, 2 μM (P-gp (human MDR1)): 3.82
- bioavailability ([1]; mouse, plasma, po, Administration by gavage, 10 mg/kg, read-out: Bioavailability F (%)): 62.4%
- AUC(0-t) [1, 6]: 6.04 µM·h
- clearance ([1]; Intravenous administration, 1 mg/kg, mouse plasma, read-out: Clearance rate): 33.5 mL/min/kg
- half-life [1, 7]: 101 min
Compound: CN1CCN(c2ccc(Nc3ncc4c(=O)n5n(c4n3)-c3cccc(n3)[C@](C)(O)CC/C=C\C5)cc2)CC1 (single isomer, unassigned) [Compound of Formula (I)]
- TGI (%) [2]: 84.74%
- TGI (%) [3]: 73.3%
- TGI (%) [4]: 93.38%
